Source: patent US20260306640A1, “TECHNOLOGIES TARGETING CELL STATES” (Auron Therapeutics, Inc., priority 2023, published 2026)

Key:
Format in all cases: cell-based
MOLM-13 cells = assay: Cell growth inhibition, AML cell line MOLM-13 (CyQuant, day 7); details: Homo sapiens, 168 h; MOLM-13, day 7, CyQuant; read-out: MOLM13 GI50
Description: Among other things, provided technologies are useful for treating various diseases, disorders, or conditions. For example, in some embodiments, provided technologies are useful for treating cancer as confirmed in the present Example. […] In some embodiments, provided technologies can inhibit cell proliferation. In some embodiments, the present disclosure provides technologies for assessing various technologies, e.g., compounds, compositions, or methods. Among other things, the present Example provides technologies, e.g., cell growth inhibition assay, for assessing various technologies. […] In some embodiments, the following cell growth inhibition methods are utilized to assess provided technologies.
AML: AML cell line MOLM-13 cells were cultured in RPMI+15% FBS and were plated at 500 cells/well in 100 uL media in a U-bottom 96-well plate. Compounds were dilute to 3×final in full media and 50 uL were added to corresponding wells. Compound and media were replenished on days 2 and 5. On day 7, cells were transferred to a 96-well black bottom plate and CyQuant was performed per manufacturer's instructions.
In some assessments, for cell growth inhibition, cells, e.g., MOLM13, NCI-H1048, and LASCPC-01 cells, were counted using a hemocytometer or automated cell counting in triplicates. In some assessments, proliferation in NEPC organoids as measured with Cell Titer Glo reagent (Promega). Growth inhibition was determined relative to vehicle control.

KAT2B = KAT2B (Homo sapiens, UniProt Q92831); assay: KAT2B degradation, Western Blot (Jess), NCI-H1048 cells; parameters: degrader, Western blot (Jess); details: NCI-H1048 cells, KAT2B, 24 h, Western Blot, vs DMSO; read-out: KAT2B NCI-H1048 DC50
Chain of KAT2B (Q92831 whole entry): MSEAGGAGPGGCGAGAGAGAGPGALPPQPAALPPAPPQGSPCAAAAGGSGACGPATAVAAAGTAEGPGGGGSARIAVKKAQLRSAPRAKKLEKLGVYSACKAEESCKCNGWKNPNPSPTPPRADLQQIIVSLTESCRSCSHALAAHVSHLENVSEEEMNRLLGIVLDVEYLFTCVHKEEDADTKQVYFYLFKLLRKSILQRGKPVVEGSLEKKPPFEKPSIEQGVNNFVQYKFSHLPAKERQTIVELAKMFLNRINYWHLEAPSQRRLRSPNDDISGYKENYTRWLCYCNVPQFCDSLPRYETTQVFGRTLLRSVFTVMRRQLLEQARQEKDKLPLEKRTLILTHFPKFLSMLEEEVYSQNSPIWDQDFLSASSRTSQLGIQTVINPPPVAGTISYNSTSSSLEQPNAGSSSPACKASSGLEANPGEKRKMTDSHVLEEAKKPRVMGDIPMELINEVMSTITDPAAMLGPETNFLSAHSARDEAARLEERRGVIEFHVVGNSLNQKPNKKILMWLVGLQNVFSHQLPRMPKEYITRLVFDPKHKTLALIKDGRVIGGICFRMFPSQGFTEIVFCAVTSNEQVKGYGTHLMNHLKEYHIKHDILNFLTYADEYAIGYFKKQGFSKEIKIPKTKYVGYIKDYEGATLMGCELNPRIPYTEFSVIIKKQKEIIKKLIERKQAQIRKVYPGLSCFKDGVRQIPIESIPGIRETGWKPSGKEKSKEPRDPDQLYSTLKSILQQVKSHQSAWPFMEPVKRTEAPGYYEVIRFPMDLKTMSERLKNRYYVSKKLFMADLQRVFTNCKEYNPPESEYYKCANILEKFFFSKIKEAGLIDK
Summary of the method: (§1)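 DC50 came from protein loss relative to DMSO, measured by Jess capillary immunoblot of RIPA lysates with chemiluminescence read-out. Before lysis, NCI-H1048 cells in 5% FBS HITES medium were exposed to compound for 24 h at 37° C.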

KAT2A [1] = target: T1, KAT2A (Homo sapiens, UniProt Q92830); assay: KAT2A degradation, Western Blot (Jess), NCI-H1048 cells; parameters: degrader, Western blot (Jess); details: NCI-H1048 cells, KAT2A, 24 h, Western Blot, vs DMSO; read-out: KAT2A NCI-H1048 DC50
T1 sequence (Q92830 whole entry): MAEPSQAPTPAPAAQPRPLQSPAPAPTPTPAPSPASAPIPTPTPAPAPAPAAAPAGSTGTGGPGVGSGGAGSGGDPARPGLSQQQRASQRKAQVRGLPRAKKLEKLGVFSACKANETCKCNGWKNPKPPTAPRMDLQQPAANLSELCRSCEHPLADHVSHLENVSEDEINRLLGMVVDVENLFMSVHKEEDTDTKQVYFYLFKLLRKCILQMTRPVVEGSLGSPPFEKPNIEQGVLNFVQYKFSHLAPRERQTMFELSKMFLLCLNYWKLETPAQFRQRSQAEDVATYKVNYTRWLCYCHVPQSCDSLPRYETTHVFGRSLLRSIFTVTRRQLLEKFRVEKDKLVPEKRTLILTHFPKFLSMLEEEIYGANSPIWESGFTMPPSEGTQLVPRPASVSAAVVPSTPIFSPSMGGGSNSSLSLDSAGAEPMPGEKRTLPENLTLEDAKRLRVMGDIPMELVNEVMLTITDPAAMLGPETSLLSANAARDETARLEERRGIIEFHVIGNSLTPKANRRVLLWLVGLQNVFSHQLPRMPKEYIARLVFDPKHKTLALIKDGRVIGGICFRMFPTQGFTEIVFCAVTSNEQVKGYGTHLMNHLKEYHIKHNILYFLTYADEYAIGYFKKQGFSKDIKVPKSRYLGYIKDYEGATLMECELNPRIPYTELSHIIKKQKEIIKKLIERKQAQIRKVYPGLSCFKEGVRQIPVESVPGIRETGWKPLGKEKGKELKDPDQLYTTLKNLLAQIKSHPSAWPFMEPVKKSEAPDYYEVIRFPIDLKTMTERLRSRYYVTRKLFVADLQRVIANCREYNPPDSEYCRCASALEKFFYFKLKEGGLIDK
Summary of the method: as §1

KAT2A [2] = target: T1, KAT2A; assay: KAT2A degradation, Western Blot (Jess), MOLM-13 cells; parameters: degrader, Western blot; details: MOLM-13 cells, KAT2A, 24 h, Western Blot, vs DMSO; read-out: KAT2A MOLM-13 DC50
Summary of the method: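 MOLM-13 cells in RPMI 1640/20% FBS were treated with compound for 24 h at 37 °C. RIPA lysates (4 μg) were run on a capillary Western (Jess) with anti-KAT2A antibody and chemiluminescent detection. DC50 comes from percent protein reduction versus DMSO control.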

Row | GI50 (MOLM-13 cells) | DC50 (KAT2B) | DC50 (KAT2A [1]) | DC50 (KAT2A [2]) | Compound
1 | 3.9 nM | < 1 nM | < 1 nM |  | CN1C[C@H](Nc2cnn(C)c(=O)c2Br)C[C@H](c2ccc(C(=O)N3CCC4(CC3)CCN(c3ccc(C5CCC(=O)NC5=O)cc3)CC4)cc2)C1 (single isomer, unassigned) [Compound 240]
2 |  | < 1 nM | < 1 nM | 1 to 30 nM | CN1C[C@H](Nc2cnn(C)c(=O)c2Cl)C[C@H](c2ccc(C(=O)N3CC4(CC(Oc5ccc(C6CCC(=O)NC6=O)c(F)c5)C4)C3)cc2)C1 (some centres unmarked) [Compound 2-44]
3 | 0.4 nM | < 1 nM | < 1 nM |  | CN1C[C@H](Nc2cnn(C)c(=O)c2Cl)C[C@H](c2ccc(C(=O)N3CCC4(CC3)CCN(c3ccc(C5CCC(=O)NC5=O)cn3)CC4)cc2)C1 (some centres unmarked) [Compound 2-52]
4 |  | < 1 nM | < 1 nM | < 1 nM | CN1C[C@H](Nc2cnn(C)c(=O)c2Br)C[C@H](c2ccc(CN3CCN(c4ccc5c(c4)C(=O)N(C4CCC(=O)NC4=O)C5=O)CC3)cc2)C1 (some centres unmarked) [Compound 28]
5 |  | < 1 nM | < 1 nM | < 1 nM | CN1C[C@H](Nc2cnn(C)c(=O)c2Br)C[C@H](c2ccc(CN3CCN(c4ccc5c(c4)CN(C4CCC(=O)NC4=O)C5=O)CC3)cc2)C1 (some centres unmarked) [Compound 67]
6 |  | < 1 nM | < 1 nM | < 1 nM | CN1C[C@H](Nc2cnn(C)c(=O)c2Cl)C[C@H](c2ccc(CN3CCN(c4ccc5c(c4)CN(C4CCC(=O)NC4=O)C5=O)CC3)cc2)C1 (some centres unmarked) [Compound 72]
7 |  | 1 to 30 nM | 1 to 30 nM | 1 to 30 nM | CN1C[C@H](Nc2cnn(C)c(=O)c2Cl)C[C@H](c2ccc(COc3ccc4c(c3)C(=O)N(C3CCC(=O)NC3=O)C4=O)cc2)C1 (some centres unmarked) [Compound 110]
8 |  | > 30 nM | < 1 nM | < 1 nM | Cc1cc(OC2CCN(C(=O)c3ccc([C@H]4C[C@@H](Nc5cnn(C)c(=O)c5Br)CN(C)C4)cc3)CC2)ccc1C1CCC(=O)NC1=O (some centres unmarked) [Compound 114]
9 |  | > 30 nM | < 1 nM | 1 to 30 nM | CN1C[C@H](Nc2cnn(C)c(=O)c2Br)C[C@H](c2ccc(C(=O)N3CCC(Oc4cccc(C5CCC(=O)NC5=O)c4)CC3)cc2)C1 (some centres unmarked) [Compound 120]
10 |  | > 30 nM | < 1 nM | < 1 nM | Cc1cc(OC2CCN(Cc3ccc([C@H]4C[C@@H](Nc5cnn(C)c(=O)c5Br)CN(C)C4)cc3)CC2)ccc1C1CCC(=O)NC1=O (some centres unmarked) [Compound 123]
11 |  | 1 to 30 nM | < 1 nM | < 1 nM | CN1C[C@H](Nc2cnn(C)c(=O)c2Br)C[C@H](c2ccc(C(=O)N3CCC(Oc4ccc(C5CCC(=O)NC5=O)cc4F)CC3)cc2)C1 (some centres unmarked) [Compound 124]
12 |  | > 30 nM | < 1 nM | < 1 nM | CN1C[C@H](Nc2cnn(C)c(=O)c2Br)C[C@H](c2ccc(CN3CCC(Oc4ccc(C5CCC(=O)NC5=O)cc4F)CC3)cc2)C1 (some centres unmarked) [Compound 125]
13 |  | 1 to 30 nM | < 1 nM | < 1 nM | CN1C[C@H](Nc2cnn(C)c(=O)c2Br)C[C@H](c2ccc(C(=O)N3CCC4(CC3)CN(c3ccc(C5CCC(=O)NC5=O)cc3)C4)cc2)C1 (some centres unmarked) [Compound 126]
14 |  | 1 to 30 nM | < 1 nM | 1 to 30 nM | CN1C[C@H](Nc2cnn(C)c(=O)c2Br)C[C@H](c2ccc(CN3CCN(c4ccc(F)c(C5CCC(=O)NC5=O)c4)CC3)cc2)C1 (some centres unmarked) [Compound 152]
15 |  | < 1 nM | < 1 nM | < 1 nM | CN1C[C@H](Nc2cnn(C)c(=O)c2Cl)C[C@H](c2ccc(CN3CCC4(CC3)CCN(c3ccc(C5CCC(=O)NC5=O)cc3)CC4)cc2)C1 (some centres unmarked) [Compound 155]
16 |  | 1 to 30 nM | < 1 nM | < 1 nM | CN1C[C@H](Nc2cnn(C)c(=O)c2Cl)C[C@H](c2ccc(CN3CCN(c4cccc(C5CCC(=O)NC5=O)c4)CC3)cc2)C1 (some centres unmarked) [Compound 162]
17 |  | 1 to 30 nM | < 1 nM | < 1 nM | CN1C[C@H](Nc2cnn(C)c(=O)c2Cl)C[C@H](c2ccc(CN3CCC(Oc4ccc(C5CCC(=O)NC5=O)cc4)CC3)cc2)C1 (some centres unmarked) [Compound 168]

Row | GI50 (MOLM-13 cells) | DC50 (KAT2B) | DC50 (KAT2A [1]) | DC50 (KAT2A [2]) | Compound
18 |  | 1 to 30 nM | < 1 nM | < 1 nM | CN1C[C@H](Nc2cnn(C)c(=O)c2Cl)C[C@H](c2ccc(CN3CCN(c4ccc5c(c4)C(=O)N(C4CCC(=O)NC4=O)C5=O)CC3)cc2)C1 (some centres unmarked) [Compound 175]
19 |  |  |  | 1 to 30 nM | CN1C[C@H](Nc2cnn(C)c(=O)c2Br)C[C@H](c2ccc(C(=O)N3CCN(c4ccc5c(c4)oc(=O)n5C4CCC(=O)NC4=O)CC3)cc2)C1 (some centres unmarked) [Compound 181]
20 |  |  |  | < 1 nM | CN1C[C@H](Nc2cnn(C)c(=O)c2Br)C[C@H](c2ccc(CN3CC(Oc4ccc(C5CCC(=O)NC5=O)cc4)C3)cc2)C1 (some centres unmarked) [Compound 182]
21 |  |  |  | 1 to 30 nM | CN1C[C@H](Nc2cnn(C)c(=O)c2Br)C[C@H](c2ccc(C(=O)N3CC(Oc4ccc(C5CCC(=O)NC5=O)cc4)C3)cc2)C1 (some centres unmarked) [Compound 183]
22 |  | > 30 nM | < 1 nM | 1 to 30 nM | CN1C[C@H](Nc2cnn(C)c(=O)c2Br)C[C@H](c2ccc(CN3CC(Oc4cccc(C5CCC(=O)NC5=O)c4)C3)cc2)C1 (some centres unmarked) [Compound 184]
23 |  |  |  | < 1 nM | CN1C[C@H](Nc2cnn(C)c(=O)c2Br)C[C@H](c2ccc(C(=O)N3CC(Oc4cccc(C5CCC(=O)NC5=O)c4)C3)cc2)C1 (some centres unmarked) [Compound 185]
24 |  | < 1 nM | < 1 nM | < 1 nM | Cc1c(N[C@@H]2C[C@H](c3ccc(C(=O)N4CCC5(CC4)CCN(c4ccc(C6CCC(=O)NC6=O)cc4)CC5)cc3)CN(C)C2)cnn(C)c1=O (some centres unmarked) [Compound 186]
25 |  | 1 to 30 nM | < 1 nM | < 1 nM | Cc1c(N[C@@H]2C[C@H](c3ccc(CN4CCN(c5cccc(C6CCC(=O)NC6=O)c5)CC4)cc3)CN(C)C2)cnn(C)c1=O (some centres unmarked) [Compound 187]
26 |  | > 30 nM | < 1 nM | < 1 nM | Cc1c(N[C@@H]2C[C@H](c3ccc(CN4CCC(Oc5ccc(C6CCC(=O)NC6=O)cc5)CC4)cc3)CN(C)C2)cnn(C)c1=O (some centres unmarked) [Compound 188]
27 | 0.3 nM | < 1 nM | < 1 nM |  | CN1C[C@H](Nc2cnn(C)c(=O)c2Cl)C[C@H](c2ccc(C(=O)N3CCC4(CC3)CCN(c3ccc5c(C6CCC(=O)NC6=O)nn(C)c5c3)CC4)cc2)C1 (stereo partly drawn) [Compound 208, 3-[6-[3-[4-[(3R,5R)-5-[(5-chloro-1-methyl-6-oxo-pyridazin-4-yl)amino]-1-methyl-3-piperidyl]benzoyl]-3,9-diazaspiro[5.5]undecan-9-yl]-1-methyl-indazol-3-yl]piperidine-2,6-dione]
28 | 5.9 nM | < 1 nM | < 1 nM |  | Cc1cc(N2CCC3(CCN(C(=O)c4ccc([C@H]5C[C@@H](Nc6cnn(C)c(=O)c6C)CN(C)C5)cc4)CC3)CC2)ccc1C1CCC(=O)NC1=O (some centres unmarked) [Compound 219]
29 | 4.4 nM | < 1 nM | < 1 nM |  | Cc1cc(N2CCC3(CCN(C(=O)c4ccc([C@H]5C[C@@H](Nc6cnn(C)c(=O)c6Cl)CN(C)C5)cc4)CC3)CC2)ccc1C1CCC(=O)NC1=O (some centres unmarked) [Compound 223]
30 | 0.9 nM | < 1 nM | < 1 nM |  | CN1C[C@H](Nc2cnn(C)c(=O)c2Cl)C[C@H](c2ccc(C(=O)N3CCC4(CC3)CCN(c3ccc(C5CCC(=O)NC5=O)c(F)c3)CC4)cc2)C1 (stereo partly drawn) [Compound 228, 3-[4-[3-[4-[(3R,5R)-5-[(5-chloro-1-methyl-6-oxo-pyridazin-4-yl)amino]-1-methyl-3-piperidyl]benzoyl]-3,9-diazaspiro[5.5]undecan-9-yl]-2-fluoro-phenyl]piperidine-2,6-dione]
31 | 0.7 nM | < 1 nM | < 1 nM |  | Cc1c(N[C@@H]2C[C@H](c3ccc(C(=O)N4CCC5(CC4)CCN(c4ccc(C6CCC(=O)NC6=O)c(F)c4)CC5)cc3)CN(C)C2)cnn(C)c1=O (stereo partly drawn) [Compound 229, 3-[4-[3-[4-[(3R,5R)-5-[(1,5-dimethyl-6-oxo-pyridazin-4-yl)amino]-1-methyl-3-piperidyl]benzoyl]-3,9-diazaspiro[5.5]undecan-9-yl]-2-fluoro-phenyl]piperidine-2,6-dione]
32 | 7.3 nM | 1 to 30 nM | < 1 nM |  | CN1C[C@H](Nc2cnn(C)c(=O)c2Cl)C[C@H](c2ccc(C(=O)N3CCC4(CCC(c5ccc(C6CCC(=O)NC6=O)cc5F)CC4)CC3)cc2)C1 (some centres unmarked) [Compound 231]
33 | 0.3 nM |  |  |  | CN1CC(Nc2cnn(C)c(=O)c2Br)CC(c2ccc(C(=O)N3CCC4(CC3)CCN(c3ccc(C5CCC(=O)NC5=O)cc3)CC4)cc2)C1 (centres unmarked) [Compound 437]
